Data from ChEMBL document CHEMBL1201862, “PubChem BioAssay data set” (2004).
Active and inactive are the calls of the source.

Experiments:
[1] = Luminescence Cell-Based Dose Confirmation HTS to Identify Activators of 5'UTR Stem-Loop Driven Alpha-Synuclein mRNA Translation in H4 Neuroglioblastoma Cells. [Related pubchem assays: 1829 (Project Summary), 1814 (Primary HTS)]; assay type: functional
[2] = Luminescence Cell-Based Dose Response HTS to Identify Activators of Luciferase Translation or Activity in H4 […] Cells. [Related pubchem assays: 1829 (Project Summary), 1814 (Primary HTS)]; assay type: functional
[3] = test system: H4; assay: Luminescence Cell-Based Dose Response HTS to Identify Activators of 5'UTR Stem-Loop Driven Prion Protein mRNA Translation in H4 Neuroglioblastoma Cells. [Related pubchem assays: 1829 (Project Summary), 1814 (Primary HTS)]; assay type: functional; conditions: Homo sapiens
[4] = A High Throughput Confirmatory Assay used to Identify Novel Compounds that Inhibit Mycobacterium Tuberculosis in the absence of Glycerol.; assay type: functional
[5] = target: E3 ubiquitin-protein ligase Mdm2 (Homo sapiens, UniProt Q00987); assay: MDM2-luc reporter signal enhancers, multi-concentration potency testing, MDM2 ubiquitin-protein ligase inhibitor program, whole-cell format, luminescence detection, 384-well microplate (AID 1394); assay type: functional;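 further: MDM2 E3 inhibitors raise luminescence so EC50 is for signal enhancement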
E3 ubiquitin-protein ligase Mdm2, sequence (Q00987 whole entry): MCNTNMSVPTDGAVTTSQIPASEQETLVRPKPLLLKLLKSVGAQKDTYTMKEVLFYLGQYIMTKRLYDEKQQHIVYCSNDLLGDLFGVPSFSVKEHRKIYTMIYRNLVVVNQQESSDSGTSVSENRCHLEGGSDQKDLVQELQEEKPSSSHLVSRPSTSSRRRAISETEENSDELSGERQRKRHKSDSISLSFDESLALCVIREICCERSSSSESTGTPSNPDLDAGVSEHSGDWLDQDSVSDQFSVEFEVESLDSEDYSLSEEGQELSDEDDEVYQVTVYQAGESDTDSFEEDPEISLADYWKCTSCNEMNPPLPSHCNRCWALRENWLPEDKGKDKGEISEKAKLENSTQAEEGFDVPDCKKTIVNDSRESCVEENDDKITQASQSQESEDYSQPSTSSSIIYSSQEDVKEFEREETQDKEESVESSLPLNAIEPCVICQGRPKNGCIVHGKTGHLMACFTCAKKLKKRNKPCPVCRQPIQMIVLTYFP

[6] = target: Luciferin 4-monooxygenase (Photinus pyralis, UniProt P08659); assay: Counter Screen for Luciferase-based Assay Positives. [Related pubchem assays: 620, 618, 411 ]
Luciferin 4-monooxygenase, sequence (P08659 whole entry): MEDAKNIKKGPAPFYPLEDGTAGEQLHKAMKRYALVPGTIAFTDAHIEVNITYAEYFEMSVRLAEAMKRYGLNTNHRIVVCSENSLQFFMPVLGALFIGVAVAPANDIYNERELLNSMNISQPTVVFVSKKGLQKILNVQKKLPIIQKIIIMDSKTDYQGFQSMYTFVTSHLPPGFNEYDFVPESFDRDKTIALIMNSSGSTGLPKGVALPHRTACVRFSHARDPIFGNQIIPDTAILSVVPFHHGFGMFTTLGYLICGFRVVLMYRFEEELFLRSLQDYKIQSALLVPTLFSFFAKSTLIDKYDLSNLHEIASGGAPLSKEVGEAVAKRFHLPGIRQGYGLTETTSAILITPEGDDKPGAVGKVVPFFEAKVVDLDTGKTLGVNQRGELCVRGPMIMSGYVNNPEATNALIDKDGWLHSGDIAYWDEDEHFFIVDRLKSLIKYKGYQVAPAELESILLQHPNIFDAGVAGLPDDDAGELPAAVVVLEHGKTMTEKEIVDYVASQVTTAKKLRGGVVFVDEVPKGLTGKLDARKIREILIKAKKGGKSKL

[7] = Luminescence Cell-Based Dose Response HTS to Identify Inhibitors of 5'UTR Stem-Loop Driven Prion Protein mRNA Translation in H4 Neuroglioblastoma Cells. [Related pubchem assays: 1827 (Project Summary), 1813 (Primary HTS)]; assay type: functional
[8] = alpha-synuclein stem-loop luciferase translation blockers – H4 neuroglioma cells, luminescence, confirmation (AID 1988); assay type: functional, cell-based
[9] = Luminescence Cell-Based Dose Confirmation HTS to Identify Inhibitors of Polyadenylation.; assay type: functional
[10] = test system: HT-1080; assay: HT1080 cell viability loss – fluorescence readout (AID 620); assay type: functional, cell-based; conditions: Homo sapiens
[11] = target: Sphingosine 1-phosphate receptor 2 (Homo sapiens, UniProt O95136); assay: Dose Response Cell Based Assay for Agonists of the S1P2 Receptor of Purchased Analogues. [Related pubchem assays: 729, 843, 854, 736 ]; assay type: functional
Sphingosine 1-phosphate receptor 2, sequence (O95136 whole entry): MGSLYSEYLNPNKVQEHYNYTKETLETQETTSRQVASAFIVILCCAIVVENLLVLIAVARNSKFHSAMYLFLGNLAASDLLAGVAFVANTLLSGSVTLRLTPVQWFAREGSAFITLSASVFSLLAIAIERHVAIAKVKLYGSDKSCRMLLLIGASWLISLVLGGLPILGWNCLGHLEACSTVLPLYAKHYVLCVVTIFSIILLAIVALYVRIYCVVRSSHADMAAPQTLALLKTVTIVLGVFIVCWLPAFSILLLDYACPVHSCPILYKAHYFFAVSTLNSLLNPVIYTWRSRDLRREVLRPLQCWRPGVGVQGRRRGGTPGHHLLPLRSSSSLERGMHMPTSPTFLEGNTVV

[12] = test system: Streptococcus sp. 'group A'; assay: Streptococcus pyogenes SK(-)GAS viability under kanamycin – luminescence, BacTiterGlo, confirmation, counter-screen for streptokinase expression inhibitor project, dose response (AID 1900); assay type: functional, organism-based
[13] = HPDE-C7 pancreatic duct cell viability loss – fluorescence, HTS (AID 430); assay type: functional, cell-based; conditions: Homo sapiens
[14] = viability loss of HPDE-C7K cells – cell-based, fluorescence, HTS, primary screen (AID 431); assay type: functional; conditions: Homo sapiens
[15] = test system: Streptococcus; assay: GAS UMAA2166 growth inhibition – luminescence, BacTiterGlo, counter-screen for streptokinase expression inhibitor project, dose response (AID 1915); assay type: functional, organism-based;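 further: potency for reduction of bacterial viability or growth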
[16] = target: Genome polyprotein (Hepatitis C virus, UniProt Q2Q167); assay: disruption of hepatitis C core self-association – biochemical, TR-FRET, dose response (AID 2159); design: species or system Hepacivirus hominis;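 further: blocks dimerization of HCV core protein measured by TR-FRET between tagged core106 pairs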
Genome polyprotein, sequence (Q2Q167 whole entry): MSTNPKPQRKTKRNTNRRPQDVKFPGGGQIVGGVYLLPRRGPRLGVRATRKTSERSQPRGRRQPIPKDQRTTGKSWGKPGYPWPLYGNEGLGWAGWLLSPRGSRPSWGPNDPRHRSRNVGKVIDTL

[17] = target: T1, Dual specificity protein phosphatase 3 (Homo sapiens, UniProt P51452); assay: VHR1 phosphatase inhibitors, primary screen, biochemical, absorbance, uHTS (AID 1654)
T1 sequence (P51452 whole entry): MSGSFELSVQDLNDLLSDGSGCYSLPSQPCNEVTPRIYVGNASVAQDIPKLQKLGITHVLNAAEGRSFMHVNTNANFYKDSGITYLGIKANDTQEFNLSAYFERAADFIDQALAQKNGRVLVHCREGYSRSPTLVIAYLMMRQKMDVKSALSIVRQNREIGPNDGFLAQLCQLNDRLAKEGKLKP

[18] = target: Guanyl-specific ribonuclease T1 (Aspergillus oryzae (strain ATCC 42149 / RIB 40), UniProt P00651); assay: inhibition of ribonuclease T1 activity – biochemical, fluorescence polarization, 1536-well, counter-screen for TPT1 inhibitor project, dose response (AID 2167)
Guanyl-specific ribonuclease T1, sequence (P00651 whole entry): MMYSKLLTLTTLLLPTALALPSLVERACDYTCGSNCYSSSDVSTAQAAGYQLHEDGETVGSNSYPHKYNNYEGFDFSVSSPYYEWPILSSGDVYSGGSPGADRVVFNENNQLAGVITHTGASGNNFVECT

[19] = target: Likely tRNA 2'-phosphotransferase (Candida albicans (strain SC5314 / ATCC MYA-2876) (Yeast), UniProt Q5A7N4); assay: inhibition of Candida TPT1 enzyme activity – biochemical, fluorescence polarization, dose response (AID 2160)
Likely tRNA 2'-phosphotransferase, sequence (Q5A7N4 whole entry): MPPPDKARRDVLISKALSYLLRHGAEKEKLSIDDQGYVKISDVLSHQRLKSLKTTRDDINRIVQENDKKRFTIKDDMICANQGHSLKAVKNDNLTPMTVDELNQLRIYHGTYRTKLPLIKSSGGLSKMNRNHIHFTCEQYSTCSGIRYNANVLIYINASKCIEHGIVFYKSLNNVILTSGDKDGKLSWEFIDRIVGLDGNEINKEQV

[20] = target: T1, Dual specificity protein phosphatase 3; assay: VHR1 phosphatase inhibitors, biochemical (AID 1878)
[21] = target: Voltage-gated inwardly rectifying potassium channel KCNH2 (Homo sapiens, UniProt Q12809); assay: concentration-dependent hERG rescue from blockers – cell-based, thallium flux, dose response (AID 2121); assay type: ADME
Voltage-gated inwardly rectifying potassium channel KCNH2, sequence (Q12809 whole entry): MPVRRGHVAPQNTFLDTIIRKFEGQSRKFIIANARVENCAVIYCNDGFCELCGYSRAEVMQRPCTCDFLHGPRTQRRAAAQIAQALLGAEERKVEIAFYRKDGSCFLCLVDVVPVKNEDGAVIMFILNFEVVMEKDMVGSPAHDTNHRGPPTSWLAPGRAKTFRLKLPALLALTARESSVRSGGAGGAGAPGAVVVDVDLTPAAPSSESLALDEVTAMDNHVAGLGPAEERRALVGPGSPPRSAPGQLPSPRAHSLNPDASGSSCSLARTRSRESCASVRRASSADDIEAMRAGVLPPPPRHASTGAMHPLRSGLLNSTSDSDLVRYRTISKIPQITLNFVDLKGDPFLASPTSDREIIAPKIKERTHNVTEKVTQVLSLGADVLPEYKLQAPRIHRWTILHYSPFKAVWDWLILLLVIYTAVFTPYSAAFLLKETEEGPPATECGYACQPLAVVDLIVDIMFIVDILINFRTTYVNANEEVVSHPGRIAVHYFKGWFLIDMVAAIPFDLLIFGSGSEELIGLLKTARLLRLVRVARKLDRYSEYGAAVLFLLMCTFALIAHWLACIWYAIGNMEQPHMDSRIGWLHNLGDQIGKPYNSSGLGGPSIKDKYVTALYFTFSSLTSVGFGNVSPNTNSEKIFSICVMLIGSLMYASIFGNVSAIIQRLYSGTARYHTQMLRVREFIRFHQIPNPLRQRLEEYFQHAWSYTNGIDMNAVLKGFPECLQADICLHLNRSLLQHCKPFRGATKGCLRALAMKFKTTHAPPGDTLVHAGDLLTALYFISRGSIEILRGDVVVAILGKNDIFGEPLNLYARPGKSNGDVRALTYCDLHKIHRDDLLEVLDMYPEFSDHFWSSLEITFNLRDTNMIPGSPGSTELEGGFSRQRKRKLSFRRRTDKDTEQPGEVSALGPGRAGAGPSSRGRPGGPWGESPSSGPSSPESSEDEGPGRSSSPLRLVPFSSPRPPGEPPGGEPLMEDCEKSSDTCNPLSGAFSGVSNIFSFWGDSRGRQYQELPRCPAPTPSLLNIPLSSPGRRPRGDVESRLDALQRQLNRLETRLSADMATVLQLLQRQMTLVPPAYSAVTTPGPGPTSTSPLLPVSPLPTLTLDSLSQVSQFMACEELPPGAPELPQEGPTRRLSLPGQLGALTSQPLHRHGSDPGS

[22] = target: T2, Dual specificity protein phosphatase 6 (Rattus norvegicus, UniProt Q64346); assay: inhibition of rat DUSP6 enzyme activity – biochemical, in vitro, primary screen (AID 425)
T2 sequence (Q64346 whole entry): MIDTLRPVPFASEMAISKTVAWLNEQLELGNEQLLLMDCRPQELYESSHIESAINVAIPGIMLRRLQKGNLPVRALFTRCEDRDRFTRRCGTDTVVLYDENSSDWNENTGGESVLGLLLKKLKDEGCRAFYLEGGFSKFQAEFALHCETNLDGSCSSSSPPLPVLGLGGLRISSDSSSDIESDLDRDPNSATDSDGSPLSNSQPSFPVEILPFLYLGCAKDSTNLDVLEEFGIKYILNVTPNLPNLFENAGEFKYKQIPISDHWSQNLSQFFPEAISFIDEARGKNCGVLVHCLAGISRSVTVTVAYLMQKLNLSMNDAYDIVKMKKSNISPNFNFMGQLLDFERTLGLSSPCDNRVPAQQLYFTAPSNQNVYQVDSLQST

[23] = target: Glyceraldehyde-3-phosphate dehydrogenase (Homo sapiens, UniProt P04406)
Glyceraldehyde-3-phosphate dehydrogenase, sequence (P04406 whole entry): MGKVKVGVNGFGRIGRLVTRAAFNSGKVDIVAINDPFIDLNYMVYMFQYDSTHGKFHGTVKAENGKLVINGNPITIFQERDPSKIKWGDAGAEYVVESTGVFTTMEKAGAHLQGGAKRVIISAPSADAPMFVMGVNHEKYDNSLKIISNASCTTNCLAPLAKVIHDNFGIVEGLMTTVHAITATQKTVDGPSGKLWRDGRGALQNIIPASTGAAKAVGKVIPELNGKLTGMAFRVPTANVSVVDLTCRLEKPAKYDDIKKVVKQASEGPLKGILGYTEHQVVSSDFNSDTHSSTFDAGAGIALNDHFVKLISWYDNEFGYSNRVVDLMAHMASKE

[24] = target: T3, Bcl-2-related protein A1 (Mus musculus, UniProt Q07440); assay: small-molecule antagonists of Bfl-1/BH3 interaction – biochemical, TR-FRET, mouse Bfl-1, confirmation (AID 621);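 further: TR-FRET binding of GST-Bfl-1 to FITC-labelled Bid peptide via terbium antibody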
T3 sequence (Q07440 whole entry): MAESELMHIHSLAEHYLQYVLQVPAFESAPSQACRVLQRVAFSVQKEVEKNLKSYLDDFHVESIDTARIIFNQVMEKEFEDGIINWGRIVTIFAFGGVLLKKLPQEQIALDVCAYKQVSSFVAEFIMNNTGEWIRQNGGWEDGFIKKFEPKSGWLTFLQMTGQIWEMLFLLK

[25] = target: T3, Bcl-2-related protein A1; assay: Bfl-1 binding inhibitors, SAR follow-up, biochemical, fluorescence polarization (AID 1070)

## COc1ccc2c(c1)CC/C(=C\C=C\c1ccccc1OC)C2=O
[1]
  EC50: > 120 µM (not active)
[2]
  EC50: 1.99 µM (active)
[3]
  EC50: 13.8 µM (active)
[4]
  IC50: > 100 µM (active)

## CSc1nsc(/C=C/Nc2ccc(F)cc2)c1C#N
[5]
  EC50: 2.4 µM (not active)

## O=c1c2sc(-c3ccccc3)cc2nc2n1CCC2
[6]
  EC50: < 0.2 µM (active)
[7]
  EC50: 11.8 µM (inconclusive)
[8]
  EC50: 8.3 µM (active)
[9]
  EC50: > 120 µM (not active)
[10]
  EC50: > 50 µM (not active)

## Cc1cc(C(=O)COC(=O)Cn2c(=O)oc3ccccc32)c(C)n1Cc1ccccc1
[11]
  EC50: > 30 µM (not active)

## Oc1nc2ccc(Cl)cc2c(-c2ccccc2)c1N1CCN(c2ccccn2)CC1
[12]
  EC50: 5.29 µM (active)
[13]
  EC50: 5.29 µM (active)
[14]
  EC50: 8.58 µM (active)
[15]
  EC50: 45.8 µM (active)

## Cc1ccccc1N1C(=O)/C(=C/c2ccco2)C(=O)NC1=S
[16]
  IC50: 4.78 µM (active)
[17]
  IC50: < 1.23 µM (inactive)
[18]
  IC50: > 55.7 µM (not active)
[19]
  IC50: 2.44 µM (active)
[20]
  IC50: < 1.23 µM (inactive)
[21]
  EC50: 0.71 µM (active)
[22]
  IC50: < 1.23 µM (not active)

## O=C1C(Cl)=C(N2CCCCC2)C(=O)N1c1ccc(Cl)c(Cl)c1
[23]
  IC50: > 100 µM (not active)
[24]
  IC50: 1.3 µM (active)
[25]
  IC50: > 100 µM (not active)
